Where two headings read alike, the source gives them in different places.
Legend:
IRAK4 = experiment: In vitro IRAK4 degradation, monkey PBMCs; format: cell-based
[1] = tested on: MSU-crystal induced (TLR 2/4-dependent) inflammation; experiment: Mouse air pouch model of MSU-crystal induced inflammation; format: in vivo
From the text: (§1) Overall, efficacy was associated with achieving at least 80% or more IRAK4 knockdown in associated tissues in the model systems.

[2] = tested on: ex vivo proinflammatory cytokine induction by R848 and LPS in whole blood; experiment: Phase 1 MAD ex vivo cytokine induction by R848 and LPS in whole blood; design: species or system human; details: daily up to about 200 mg, Day 7-14, FIG. 16
From the text: In some embodiments, the cytokines include IFN-γ, IL-12, IL-1β, IL-10, IL-6, TNF-α, IL-8, IL-17, and IL-23.

[3] = tested on: R848 (TLR7)-stimulated cytokine induction in whole blood; experiment: Phase 1 SAD ex vivo R848-stimulated cytokine induction in whole blood; design: species or system human
CYP2C19 = CYP2C19 (Homo sapiens, UniProt P33261); experiment: In vitro drug-drug interaction study, CYP2C19; format: in vitro ADME
CYP2C19, sequence (P33261 whole entry): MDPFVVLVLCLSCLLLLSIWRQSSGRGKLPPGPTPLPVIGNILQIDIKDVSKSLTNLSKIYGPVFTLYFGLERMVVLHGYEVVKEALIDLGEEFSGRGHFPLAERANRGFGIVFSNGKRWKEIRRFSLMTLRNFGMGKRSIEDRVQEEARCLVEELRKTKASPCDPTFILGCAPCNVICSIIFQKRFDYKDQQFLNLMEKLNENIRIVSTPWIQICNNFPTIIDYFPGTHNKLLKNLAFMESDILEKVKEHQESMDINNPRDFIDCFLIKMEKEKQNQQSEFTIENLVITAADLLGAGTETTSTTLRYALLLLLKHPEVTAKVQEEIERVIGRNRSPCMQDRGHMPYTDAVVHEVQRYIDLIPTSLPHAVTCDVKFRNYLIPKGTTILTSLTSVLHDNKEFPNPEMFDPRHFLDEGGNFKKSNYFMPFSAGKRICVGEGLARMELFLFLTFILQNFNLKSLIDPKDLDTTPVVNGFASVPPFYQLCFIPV
From the text: (§2) Metabolites generated in liver microsomes from humans were also detected in those from rat, dog, and monkey. In the in vitro drug-drug interaction studies.

CYP3A4 = CYP3A4 (Homo sapiens, UniProt P08684); experiment: In vitro drug-drug interaction and metabolism studies, CYP3A4; format: in vitro ADME
CYP3A4, sequence (P08684 whole entry): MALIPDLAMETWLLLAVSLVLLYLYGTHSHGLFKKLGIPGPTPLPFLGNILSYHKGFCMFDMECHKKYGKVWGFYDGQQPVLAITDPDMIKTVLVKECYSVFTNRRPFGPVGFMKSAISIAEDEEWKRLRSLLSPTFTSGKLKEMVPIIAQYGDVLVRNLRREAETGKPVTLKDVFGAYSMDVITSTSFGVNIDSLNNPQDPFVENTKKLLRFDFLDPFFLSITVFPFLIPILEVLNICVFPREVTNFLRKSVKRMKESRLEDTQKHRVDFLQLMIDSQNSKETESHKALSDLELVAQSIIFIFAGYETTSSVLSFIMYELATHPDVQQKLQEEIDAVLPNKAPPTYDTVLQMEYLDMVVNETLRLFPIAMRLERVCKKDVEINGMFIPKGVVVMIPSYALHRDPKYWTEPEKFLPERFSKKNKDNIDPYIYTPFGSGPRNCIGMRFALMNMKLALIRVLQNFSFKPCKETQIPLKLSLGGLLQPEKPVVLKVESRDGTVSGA
From the text: as §2

[4] = tested on: patients with atopic dermatitis (AD); experiment: Phase 1 Part C clinical efficacy in atopic dermatitis; format: in vivo, human
From the text: Baseline Characteristics and Disposition: A total of 21 patients were enrolled in the trial, including 13 HS and 8 AD patients, with median age 31-40 years (13 female, 8 male). Disease severity for HS was moderate (10), severe (1) and very severe (2) and for AD was mild (1), moderate (5) and severe (2). One HS and 1 AD patient withdrew from treatment early due to personal reasons, resulting in 12 HS and 7 AD patients evaluable for PD and clinical efficacy.
AD clinical endpoints collected in the study included EASI score, Peak Pruritus NRS and vIGA-AD. Peak Pruritus NRS was used to derive Peak Pruritus NRS responder rate.

[5] = tested on: LPS (TLR4)-stimulated cytokine induction in whole blood; experiment: Phase 1 SAD ex vivo LPS-stimulated cytokine induction in whole blood; design: species or system human; details: 24-48 hours, Cohort 7
[6] = Excretion study in bile duct-cannulated (BDC) rats; format: in vivo
Solubility = format: physicochemical
From the text: Compound A can be classified tentatively as a BCS II compound.

clinical = details: human, in vivo
From the text: The safety margin decreases as the dose increases.

[7] = Phase 1 Part C plasma PK in HS/AD patients; format: in vivo; details: human
From the text: Part C: Part C is an open-label, multiple dose study in a single cohort of up to 20 patients with AD or HS (at least 10 patients with AD) and will commence after the completion of Part B. Part C will be conducted on both an inpatient and outpatient basis and patients will continue to be followed for safety through Day 28. The dose regimen and the requirement for patient confinement to the clinical units will be selected by the SRC from review of the safety. PK, and PD data after completion of Part B.

[8] = Phase 1 MAD Compound A concentration in skin; format: in vivo; details: human, oral, Day 14, once daily dosing, read-out: Ctrough (pre-dose) levels in skin relative to plasma
[9] = tested on: imiquimod psoriasis model (TLR 7/8-dependent); experiment: Imiquimod psoriasis model; format: in vivo, murine
From the text: as §1

P-glycoprotein (P-gp) = P-glycoprotein (P-gp) (Homo sapiens, UniProt P08183); experiment: P-gp substrate assessment in vitro; format: in vitro ADME
P-glycoprotein (P-gp), sequence (P08183 whole entry): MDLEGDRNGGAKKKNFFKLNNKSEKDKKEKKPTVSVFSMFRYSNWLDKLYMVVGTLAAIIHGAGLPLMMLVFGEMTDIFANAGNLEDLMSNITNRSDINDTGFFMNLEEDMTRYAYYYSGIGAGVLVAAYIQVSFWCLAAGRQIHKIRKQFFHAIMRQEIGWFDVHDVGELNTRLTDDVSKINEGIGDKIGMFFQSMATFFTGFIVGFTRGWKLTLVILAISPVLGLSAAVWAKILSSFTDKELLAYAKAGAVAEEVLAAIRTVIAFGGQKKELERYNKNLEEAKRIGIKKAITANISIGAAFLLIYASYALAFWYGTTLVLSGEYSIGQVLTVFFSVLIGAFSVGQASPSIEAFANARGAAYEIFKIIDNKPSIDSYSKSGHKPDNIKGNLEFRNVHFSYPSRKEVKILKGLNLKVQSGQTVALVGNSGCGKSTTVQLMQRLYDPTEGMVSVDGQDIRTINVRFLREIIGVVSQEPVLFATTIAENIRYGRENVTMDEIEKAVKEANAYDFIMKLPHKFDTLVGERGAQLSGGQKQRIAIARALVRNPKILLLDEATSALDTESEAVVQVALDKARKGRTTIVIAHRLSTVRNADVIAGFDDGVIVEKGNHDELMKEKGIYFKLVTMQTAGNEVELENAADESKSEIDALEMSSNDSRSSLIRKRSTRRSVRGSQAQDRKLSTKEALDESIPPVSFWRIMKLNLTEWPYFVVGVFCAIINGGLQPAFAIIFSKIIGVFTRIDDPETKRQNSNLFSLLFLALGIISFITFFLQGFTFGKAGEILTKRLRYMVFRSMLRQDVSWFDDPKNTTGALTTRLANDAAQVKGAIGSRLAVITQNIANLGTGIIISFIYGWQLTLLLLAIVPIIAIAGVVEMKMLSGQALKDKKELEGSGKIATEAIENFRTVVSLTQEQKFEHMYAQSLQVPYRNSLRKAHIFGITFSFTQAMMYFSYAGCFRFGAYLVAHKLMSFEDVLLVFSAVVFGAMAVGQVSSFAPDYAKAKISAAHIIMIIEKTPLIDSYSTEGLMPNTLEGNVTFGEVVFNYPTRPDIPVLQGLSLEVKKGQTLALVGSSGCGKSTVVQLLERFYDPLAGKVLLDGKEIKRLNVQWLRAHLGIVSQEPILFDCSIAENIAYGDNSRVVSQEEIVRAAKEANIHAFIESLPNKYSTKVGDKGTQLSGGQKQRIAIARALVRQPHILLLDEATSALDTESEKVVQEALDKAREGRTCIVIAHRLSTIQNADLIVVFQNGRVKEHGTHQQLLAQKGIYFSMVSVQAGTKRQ
From the text: In in vivo pharmacokinetic (PK) studies conducted in rats, dogs, and monkeys.
as §2

[10] = 30 to 100 mg/kg twice daily, 3 days
[11] = R848, whole blood, 24-48 hours, Cohort 7
[12] = AD, n = 7, 75 mg QD fed, highest response across Days 28 through 42
[13] = AD, n = 7, deepest reduction across Days 28 through 42

Cn1c(=O)n([C@@H]2CCC(=O)NC2=O)c2cccc(C#CCOC3CCN(C[C@H]4CC[C@H](n5cc(NC(=O)c6cnn7ccc(N8C[C@H]9C[C@@H]8CO9)nc67)c(C(F)F)n5)CC4)CC3)c21 [Compound A, 5-((1R,4R)-2-oxa-5-azabicyclo[2.2.1]heptan-5-yl)-N-(3-(difluoromethyl)-1-((1r,4R)-4-((4-((3-(1-(2,6-dioxopiperidin-3-yl)-3-methyl-2-oxo-2,3-dihydro-1H-benzo[d]imidazol-4-yl)prop-2-yn-1-yl)oxy)piperidin-1-yl)methyl)cyclohexyl)-1H-pyrazol-4-yl)pyrazolo[1,5-a]pyrimidine-3-carboxamide]
DC50 (IRAK4): […] | IRAK4 levels in the spleen [1, 10]: significantly reduced | inflammatory exudate, including neutrophils and IL-1β [1, 10]: significantly reduced | IRAK4 knockdown in associated tissues associated with efficacy ([1]; murine inflammation model systems overall): at least 80% | inhibition of IFN-γ [2]: up to 85% | inhibition of IL-1β [2]: up to 68% | inhibition of IL-6 [2]: up to 54% | inhibition of IL-8 [2]: up to 46% | inhibition of IL-10 [2]: up to 50% | inhibition of IL-12 [2]: up to 72% | inhibition of IL-17 [2]: up to 46% | inhibition of TNF-α [2]: up to 59% | Mean Maximum Percent Change from Baseline in ex vivo IFNγ induction [3, 11]: −97%^2 | Mean Maximum Percent Change from Baseline in ex vivo IL1β induction [3, 11]: −92%^1 | Mean Maximum Percent Change from Baseline in ex vivo IL6 induction [3, 11]: −88%^1 | Mean Maximum Percent Change from Baseline in ex vivo IL8 induction [3, 11]: −54%^ | Mean Maximum Percent Change from Baseline in ex vivo IL10 induction [3, 11]: −89%^1 | Mean Maximum Percent Change from Baseline in ex vivo IL12 induction [3, 11]: −93%^1 | Mean Maximum Percent Change from Baseline in ex vivo IL17 induction [3, 11]: −79%^1 | Mean Maximum Percent Change from Baseline in ex vivo TNFα induction [3, 11]: −88%^2 | mean maximum ex vivo cytokine inhibition ([3]; SAD, R848- or LPS-mediated induction, whole blood, 24-48 h post-dose): up to 97% | inhibition of R848 or LPS induction of 8 different pro-inflammatory cytokines ([3]; SAD, whole blood, maxima across cytokines): 79-97% | time dependent inhibition (TDI) of CYP2C19 (CYP2C19): potential time dependent inhibition (TDI) | metabolizing enzyme (CYP3A4): primarily metabolized by CYP3A4 | time dependent inhibition (TDI) of CYP3A4 (CYP3A4; in vitro): potential time dependent inhibition (TDI) | EASI score reduction ([4]; AD patients, FIG. 26): up to 37% | Peak Pruritus NRS reduction ([4]; AD patients, FIG. 27): 52-63% | Peak pruritus NRS Responder rate ([4]; AD patients, FIG. 27): 57-71% | Responders: Peak Pruritis NRS, Past 24 Hours [4, 12]: 71% | Responders: Peak Pruritis NRS, Past Week [4, 12]: 57% | ΔEASI [4, 13]: −37% | ΔPeak Pruritis NRS, Past 24 Hours [4, 13]: −63% | ΔPeak Pruritis NRS, Past Week [4, 13]: −52% | disease severity in patient AD-3 ([4]; FIG. 29): from severe to mild | vIGA-AD (IGA scores) ([4]; all AD patients): stable or improved (2 of 7) | Mean Maximum Percent Change from Baseline in ex vivo IFNγ induction [5]: −42%^ | Mean Maximum Percent Change from Baseline in ex vivo IL1β induction [5]: −68%^1 | Mean Maximum Percent Change from Baseline in ex vivo IL6 induction [5]: −62%^1 | Mean Maximum Percent Change from Baseline in ex vivo IL8 induction [5]: −81%^1 | Mean Maximum Percent Change from Baseline in ex vivo IL10 induction [5]: −83%^1 | Mean Maximum Percent Change from Baseline in ex vivo IL12 induction [5]: −35%^2 | Mean Maximum Percent Change from Baseline in ex vivo IL17 induction [5]: −43%^2 | Mean Maximum Percent Change from Baseline in ex vivo TNFα induction [5]: −42%^2 | biliary and intestinal excretion as parent drug [6]: minor to moderate | renal clearance [6]: negligible | solubility (Solubility): low | solubility (Solubility; FaSSIF, pH 6.5, fassif, read-out: solubility in bio-relevant fluid (FaSSIF)): < 12000 µg/mL | solubility (Solubility; aqueous media, aqueous buffer, across the physiological pH range, read-out: aqueous solubility): ≤ 3000 µg/mL | BCS classification (Solubility; tentative): BCS II | half-life (clinical): 25 to 40 h | inter-subject variability in exposure (clinical): low to moderate | AUC (clinical; po, 25 mg): 112 ng·h/mL | Cmax (clinical; po, 25 mg): 3.49 ng/mL | Tmax (clinical; po, 25 mg): 8 h | half-life (clinical; po, 25 mg): 25.2 h | AUC (clinical; po, 75 mg): 288 ng·h/mL | Cmax (clinical; po, 75 mg): 9.08 ng/mL | Tmax (clinical; po, 75 mg): 7 h | half-life (clinical; po, 75 mg): 28.7 h | AUC (clinical; po, 150 mg): 483 ng·h/mL | Cmax (clinical; po, 150 mg): 12.7 ng/mL | Tmax (clinical; po, 150 mg): 9 h | half-life (clinical; po, 150 mg): 31.6 h | AUC (clinical; po, 300 mg): 848 ng·h/mL | Cmax (clinical; po, 300 mg): 17.4 ng/mL | Tmax (clinical; po, 300 mg): 8 h | half-life (clinical; po, 300 mg): 26.6 h | AUC (clinical; po, 600 mg): 1520 ng·h/mL | Cmax (clinical; po, 600 mg): 24.2 ng/mL | Tmax (clinical; po, 600 mg): 12 h | half-life (clinical; po, 600 mg): 30.1 h | AUC (clinical; po, 1000 mg): 1950 ng·h/mL | Cmax (clinical; po, 1000 mg): 27.8 ng/mL | Tmax (clinical; po, 1000 mg): 20 h | half-life (clinical; po, 1000 mg): 40.2 h | AUC (clinical; po, 1600 mg): 1920 ng·h/mL | Cmax (clinical; po, 1600 mg): 27.3 ng/mL | Tmax (clinical; po, 1600 mg): 24 h | half-life (clinical; po, 1600 mg): 36.4 h | exposure in fasted state as share of exposure in fed state ([7]; in vivo): about 133% | exposure in fed state as share of exposure in fasted state ([7]; in vivo): about 75% | half-life ([7]; plasma, oral, Part C, 75 mg QD fed, HS/AD patients): 44 h | Kp at 14 day [8]: ~10 | degradation of IRAK4 in the spleen and skin ([9]; mouse, in vivo): dose-dependent degradation | skin thickness ([9]; mouse, in vivo): reduction in skin thickness | IL-1β in the skin ([9]; p<0.0001): significant reduction | IL-6 in the skin ([9]; p<0.05, 300 mg/kg only): significant reduction | substrate of P-glycoprotein (P-gp) (P-glycoprotein (P-gp)): substrate

Source: patent publication US20260207614A1, “IRAK4 DEGRADERS AND USES THEREOF” (Kymera Therapeutics, Inc., priority 2022, published 2026)
